Measurements reported in US8653046B2, “Controlling transgene expression across the skin” (ETH Zurich, priority 2009, dated 2014).

Legend:
CHO-K1 = test: Toxicity of flavonoids: CHO-K1 transiently transfected with pSEAP2-Control, SEAP levels after 48 h; settings: 0, 25, 50 μM, genistein cytotoxic only at 50 μM
Method: (A) Toxicity of flavonoids. CHO-K1 are transiently transfected with pSEAP2-Control, and cultivated in medium supplemented with different flavonoids (0, 25, 50 μM). SEAP levels are scored after 48 h.
(§1) CHO-K1 are transiently (co-)transfected with either pMG10 (PTtgR1-SEAP-pA) and pMG11 (PSV40-TtgA1-pA), to score regulation performance, or with pSEAP2-Control (PSV40-SEAP-pA), to assess compound-related cytotoxicity, and then cultivated for 48 h in medium containing different concentrations (0, 25, 50 μM) of specific flavonoid type compounds (berberine, butylparaben, genistein, luteolin, β-naphthol, naringenin, phloretin, phloridzin or quercetin) before SEAP production is profiled (FIG. 5A).
Wild-type Chinese hamster ovary cells (CHO-K1, ATCC: CCL-61) and their derivatives are cultivated in standard medium: ChoMaster® HTS (Cell Culture Technologies, Gravesano, Switzerland) supplemented with 5% (v/v) fetal calf serum (FCS, PAN Biotech GmbH, Aidenbach, Germany, Cat. No. 3302, Lot No. P251110) and 1% (v/v) penicillin/streptomycin solution (Sigma, St Louis, Mo., USA, Cat. No. P4458). Human embryonic kidney cells (HEK-293, Mitta B., et al., 2002, Nucleic Acids Res 30(21):e113), African green monkey kidney cells (COS-7, ATCC: CRL-1651), baby hamster kidney cells (BHK-21, ATCC: CCL10), human fibrosarcoma cells (HT-1080, ATCC: CCL-121), the human keratinocyte cell line HaCaT (Boukamp P., et al., 1988, J Cell Biol 106(3):761-771) and mouse fibroblasts (NIH/3T3, ATCC: CRL-1658) are cultured in Dulbecco's modified Eagle's medium (DMEM; Invitrogen, Cat. No. 52100-39) supplemented with 10% FCS (v/v) and 1% (v/v) penicillin/streptomycin solution. Primary human foreskin fibroblasts are cultivated in DMEM supplemented with 20% FCS (v/v) and 1% (v/v) penicillin/streptomycin solution and primary human foreskin keratinocytes are cultured in chemically defined serum-free keratinocyte medium (Invitrogen, Cat. No. 10744019). All cell types are cultivated at 37° C. in a 5% CO2-containing humidified atmosphere. For transient transfection of CHO-K1, 1 μg of total plasmid DNA (for co-transfection an equal amount of each plasmid) is transfected into 50,000 cells per well of a 24-well plate according to an optimized calcium phosphate protocol (Greber D., Fussenegger M., 2007, Biotechnol Bioeng 96(5):821-834). Plasmid DNA is diluted to a total volume of 25 μL 0.5 M CaCl2 solution, which is mixed with 25 μL 2×HBS solution (50 mM HEPES, 280 mM NaCl, 1.5 mM Na2HPO4, pH 7.1). After incubation for 15 min at room temperature, the precipitates are immediately added to the well and centrifuged onto the cells (5 min at 1,200×g) to increase transfection efficiency. After 3 h, the cells are treated with 0.5 mL glycerol solution (ChoMaster® HTS medium containing 15% glycerol) for 60 sec. After washing once with phosphate-buffered saline (PBS, Dulbecco's Phosphate-Buffered Saline; Invitrogen, Cat. No. 21600-0069), cells are cultivated in 0.5 mL standard ChoMaster® HTS medium in the presence or absence of different concentrations of phloretin. For transfection of BHK-21, COS-7 and HEK-293, plasmid DNA-Ca2PO4 precipitate is prepared and applied to the cells as described above. HEK-293 and COS-7 cells are washed once with PBS after 3 h incubation with the DNA-Ca2PO4 precipitate and subsequently cultivated in standard DMEM, while BHK-21 cells are incubated overnight with the precipitates and then cultivated in DMEM medium after being washed once with PBS. […]

TtgA1 (TtgR-VP16) [1] = molecular target: T1, TtgA1 (TtgR-VP16) (Pseudomonas putida, UniProt Q9AIU0); test: Compatibility test: phloretin-responsive SEAP production of CHO-PEACE8; type: cell-based, Pseudomonas putida DOT-T1E; set-up: expressed in transfected cells; host or cells: CHO-K1 (transient pMG11 or pMG13); also HEK-293, BHK-21, COS-7, HaCaT, HT-1080, NIH/3T3, primary human fibroblasts and keratinocytes; settings: Phl 50 μM, 48 h, 100 = no inducer
Excerpt: (§2) To evaluate the functional compatibility of PEACE with the established tetracycline— [TETOFF; Gossen M., Bujard H., 1992, Proc Natl Acad Sci USA 89(12):5547-5551] and macrolide— [EOFF; Weber W., et al., 2002, Nat Biotechnol 20(9):901-907] responsive expression circuits CHO-PEACE8 is transiently transfected, transgenic for phloretin-responsive SEAP expression, with either the TETOFF-(pSAM200, PSV40-tTA-pA; pBP99, PhCMV*-1-SAMY-pA) or the EOFF-(PWW35, PSV40-ET1-pA; pBP100, PETR3-SAMY-pA) system set to control the Bacillus stearothermophilus-derived secreted α-amylase (SAMY) in response to tetracycline and erythromycin, respectively. SEAP and SAMY expression are scored 48 h after cultivation of the transfected populations in the presence (50 μM; 2 μg/mL) or absence of the inducer molecules (phloretin, tetracycline, erythromycin).
The stable CHO-PEACE8 cell line, transgenic for phloretin-controlled SEAP expression, is constructed in two steps: (i) CHO-K1 cells are co-transfected with pMG11 (PSV40-TtgA1-pA) and pSV2neo (Clontech, Cat. No. 6172-1) at a ratio of 20:1 and clonal selection results in the cell line CHO-TtgA. (ii) CHO-TtgA is co-transfected with pMG10 (PTtgR1-SEAP-pA) and pPur (Clontech, Cat. No. 6156-1) (ratio of 20:1) and the phloretin-responsive SEAP-producing double-transgenic cell line CHO-PEACE8 is chosen after clonal selection. […] Reversibility of phloretin-mediated SEAP production is assessed by cultivating CHO-PEACE8 (100,000 cells/mL) for 144 h while alternating phloretin concentrations from 0 to 50 μM every 48 h.

[2] = molecular target: T2, tetracycline-responsive control system (PSV40-tTA-pA; PhCMV*-1-SAMY-pA) (Escherichia coli, UniProt P04483); test: Compatibility test: tetracycline-responsive (TETOFF) SAMY production in CHO-PEACE8 (pSAM200, pBP99); type: cell-based; settings: CHO-PEACE8 transiently transfected with tetracycline-responsive control system; Phl 50 μM, Tet 2 μg/mL; 48 h; 100 = no inducer
T2 construct: expressed in transfected cells; host or cells: CHO-PEACE8 transiently transfected with pSAM200 and pBP99
Excerpt: as §2

TtgA1 (TtgR-VP16) [3] = molecular target: T1, TtgA1 (TtgR-VP16); test: PEACE: SEAP expression after transient co-transfection of pMG10 (PTtgR1-SEAP-pA) and pMG11 (PSV40-TtgA1-pA); type: cell-based; settings: CHO-K1, 0, 25, 50 μM, 48 h
Excerpt: Living in the plant rhizosphere, Pseudomonas putida DOT-T1E has evolved resistance to a variety of plant-derived antimicrobials, which is triggered by phloretin-induced release of TtgR protein from the operator (OTtgR) of its target promoter and subsequent induction of a broadly specific TtgABC efflux pump (Teran W. et al., loc. cit.).
Three different transactivators are designed, harboring either the VP16 (TtgA1; pMG11, TtgR-VP16) (Triezenberg S. J. et al., loc. cit.), the p65 (TtgA2; pMG18, TtgR-p65) (Urlinger S., et al., 2000, Gene 247(1-2):103-110) or the human E2F4 (TtgA3; pMG19, TtgR-E2F4) (Akagi K., Kanai M., Saya H., Kozu T., Berns A., 2001, Nucleic Acids Res 29(4):e23) transactivation domains. pMG11, pMG18 or pMG19 are co-transfected with pMG10 (PTtgR1-SEAP-pA) into CHO-K1, HEK-293 as well as primary human fibroblasts and keratinocytes, and SEAP expression is profiled after 48 h of cultivation in the presence or absence of 50 μM phloretin.
as §1
Wild-type Chinese hamster ovary cells (CHO-K1, ATCC: CCL-61) and their derivatives are cultivated in standard medium: ChoMaster® HTS (Cell Culture Technologies, Gravesano, Switzerland) supplemented with 5% (v/v) fetal calf serum (FCS, PAN Biotech GmbH, Aidenbach, Germany, Cat. No. 3302, Lot No. P251110) and 1% (v/v) penicillin/streptomycin solution (Sigma, St Louis, Mo., USA, Cat. No. P4458). Human embryonic kidney cells (HEK-293, Mitta B., et al., 2002, Nucleic Acids Res 30(21):e113), African green monkey kidney cells (COS-7, ATCC: CRL-1651), baby hamster kidney cells (BHK-21, ATCC: CCL10), human fibrosarcoma cells (HT-1080, ATCC: CCL-121), the human keratinocyte cell line HaCaT (Boukamp P., et al., 1988, J Cell Biol 106(3):761-771) and mouse fibroblasts (NIH/3T3, ATCC: CRL-1658) are cultured in Dulbecco's modified Eagle's medium (DMEM; Invitrogen, Cat. No. 52100-39) supplemented with 10% FCS (v/v) and 1% (v/v) penicillin/streptomycin solution. Primary human foreskin fibroblasts are cultivated in DMEM supplemented with 20% FCS (v/v) and 1% (v/v) penicillin/streptomycin solution and primary human foreskin keratinocytes are cultured in chemically defined serum-free keratinocyte medium (Invitrogen, Cat. No. 10744019). All cell types are cultivated at 37° C. in a 5% CO2-containing humidified atmosphere.

[4] = system: macrolide-responsive control system (ET1, E-VP16; PETR3-SAMY-pA); test: Compatibility test: macrolide-responsive (EOFF) SAMY production in CHO-PEACE8 (pWW35, pBP100); type: cell-based; settings: CHO-PEACE8 transiently transfected with macrolide-responsive control system; Phl 50 μM, EM 2 μg/mL; 48 h; 100 = no inducer
Excerpt: as §2

T1 sequence (Q9AIU0 whole entry, added parts left off): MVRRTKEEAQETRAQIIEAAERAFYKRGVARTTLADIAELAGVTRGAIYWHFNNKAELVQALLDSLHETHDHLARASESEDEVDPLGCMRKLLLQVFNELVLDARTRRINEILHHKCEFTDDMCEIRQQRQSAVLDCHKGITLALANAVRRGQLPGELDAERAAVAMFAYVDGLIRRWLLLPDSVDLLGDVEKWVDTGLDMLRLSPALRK
T2 sequence (P04483 whole entry, added parts left off): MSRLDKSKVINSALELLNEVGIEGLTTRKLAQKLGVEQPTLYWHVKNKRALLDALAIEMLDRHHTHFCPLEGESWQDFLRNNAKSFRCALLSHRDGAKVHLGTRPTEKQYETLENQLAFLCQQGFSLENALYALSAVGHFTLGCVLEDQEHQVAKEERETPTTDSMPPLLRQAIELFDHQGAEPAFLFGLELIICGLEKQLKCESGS

O=C1C[C@@H](c2ccc(O)cc2)Oc2cc(O)cc(O)c21 [naringenin]
compound-related cytotoxicity / cell viability (CHO-K1): cytotoxic

CN(C)[C@@H]1C(O)=C(C(N)=O)C(=O)[C@@]2(O)C(O)=C3C(=O)c4c(O)cccc4[C@@](C)(O)[C@H]3C[C@@H]12 [Tet, tetracycline]
Relative SEAP Production (%) (TtgA1 (TtgR-VP16) [1]; CHO-PEACE8 transiently transfected with tetracycline-responsive control system, Tet 2 μg/mL): 93.2 ± 3.8% | Relative SAMY Production (%) [2]: 3.0 ± 0.4%

O=c1c(-c2ccc(O)cc2)coc2cc(O)cc(O)c12 [genistein]
compound-related cytotoxicity / cell viability (CHO-K1): cytotoxic

COc1ccc2cc3[n+](cc2c1OC)CCc1cc2c(cc1-3)OCO2 [berberine]
PEACE regulation performance (SEAP production) (TtgA1 (TtgR-VP16) [3]): fails to control PEACE | compound-related cytotoxicity / cell viability (CHO-K1): do not reduce cell viability

CC[C@H]1OC(=O)[C@H](C)[C@@H](O[C@H]2C[C@@](C)(OC)[C@@H](O)[C@H](C)O2)[C@H](C)[C@@H](O[C@@H]2O[C@H](C)C[C@H](N(C)C)[C@H]2O)[C@](C)(O)C[C@@H](C)C(=O)[C@H](C)[C@@H](O)[C@]1(C)O [EM, erythromycin]
Relative SAMY Production (%) [4]: 1.5 ± 1.8% | Relative SEAP Production (%) (TtgA1 (TtgR-VP16) [1]; CHO-PEACE8 transiently transfected with macrolide-responsive control system, EM 2 μg/mL): 102.7 ± 5.3%

CCCCOC(=O)c1ccc(O)cc1 [butylparaben, butyl 4-hydroxybenzoate]
PEACE regulation performance (SEAP production) (TtgA1 (TtgR-VP16) [3]): able to regulate but not fully repress SEAP production | compound-related cytotoxicity / cell viability (CHO-K1): do not reduce cell viability
